Results from the supplement of paper PMC10307832.

Legend:
Experiment in all cases: relative viability (nuclei count vs DMSO), 5 days (fraction); higher = more cells survive
[1] = compound: CCn1c(-c2nonc2N)nc2cnc(Oc3cccc(NC(=O)c4ccc(OCCN5CCOCC5)cc4)c3)cc21 + COc1cc2c(Oc3ccc(NC(=O)C4(C(=O)Nc5ccc(F)cc5)CC4)cc3F)ccnc2cc1OCCCN1CCOCC1 [Foretinib] (partner 0.25 µM)
How it was run: (§1)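 Values are medians from duplicate plates. Each reflects relative viability, defined as the nuclei count of treated wells over that of vehicle wells. Lung cancer cell lines in 1536-well plates were pin-tool dosed one day after seeding with one drug alone or with a fixed anchor-drug dose plus five library-drug doses (not always all listed) in √10 steps, then fixed, stained and imaged at 4× after 5 days.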

[2] = compound: CCC1=CN=CN=C1N2CCN(CC2)CC3=NC4=C(N3)C=C(C=C4)C(F)(F)F + COc1cc2c(Oc3ccc(NC(=O)C4(C(=O)Nc5ccc(F)cc5)CC4)cc3F)ccnc2cc1OCCCN1CCOCC1 [Foretinib] (partner 0.25 µM)
How it was run: as §1

[3] = compound: N=C1NC(=O)/C(=C/c2ccc(O)cc2)S1 [Mirin] + CCNC(=O)c1noc(-c2cc(C(C)C)c(O)cc2O)c1-c1ccc(CN2CCOCC2)cc1 [Luminespib] (partner 0.01 µM)
How it was run: as §1

[4] = compound: N=C1NC(=O)/C(=C/c2ccc(O)cc2)S1 [Mirin] + CC(C)C[C@H](NC(=O)[C@H](Cc1ccccc1)NC(=O)c1cnccn1)B(O)O [Bortezomib] (partner 0.002 µM)
How it was run: as §1

Cell Line	relative viability ([1]; first compound 0.04 µM)	relative viability ([1]; first compound 0.1265 µM)	relative viability ([1]; first compound 0.4 µM)	relative viability ([1]; first compound 1.265 µM)	relative viability ([1]; first compound 4 µM)	relative viability ([2]; first compound 0.04 µM)	relative viability ([2]; first compound 0.1265 µM)	relative viability ([2]; first compound 0.4 µM)	relative viability ([2]; first compound 1.265 µM)	relative viability ([2]; first compound 4 µM)	relative viability ([3]; first compound 0.25 µM)	relative viability ([3]; first compound 0.7906 µM)	relative viability ([3]; first compound 2.5 µM)	relative viability ([3]; first compound 7.906 µM)	relative viability ([3]; first compound 25 µM)	relative viability ([4]; first compound 0.25 µM)	relative viability ([4]; first compound 0.7906 µM)	relative viability ([4]; first compound 2.5 µM)	relative viability ([4]; first compound 7.906 µM)	relative viability ([4]; first compound 25 µM)
NCI-H2342	1.16	1.18	1.01	0.771	0.917	1.16	0.95	0.945	0.528	0.607	0.671	0.815	0.753	0.592	0.7	–	–	–	–	–
NCI-H1792	–	–	–	–	–	–	–	–	–	–	0.34	0.461	0.438	–	0.423	0.982	0.997	0.902	0.883	0.984
NCI-H1623	1.08	0.975	0.779	0.727	0.897	0.835	0.819	0.767	0.749	0.794	0.547	0.506	0.574	0.449	0.325	–	–	–	–	–
HCC-366	0.946	1	0.907	0.937	0.968	0.856	1.01	0.915	0.877	0.851	–	–	–	–	–	1.06	0.986	1.09	0.981	0.977
HCC-44	–	–	–	–	–	–	–	–	–	–	0.968	1.19	0.805	0.939	1.05	0.876	0.955	0.846	0.856	1.13
SW 900	1.04	0.977	0.91	0.995	0.886	0.778	0.825	0.81	0.795	0.793	0.164	0.178	0.206	0.174	0.154	–	–	–	–	–
